Here are results for 22 compounds from PubChem BioAssay AID248 (DTP/NCI, 2004).

Each structure is given as a SMILES string. Where “and” joins values, the source holds several entries; their conditions need not be identical. Equal entries are not always repeated. Toxic doses and inconclusive results are not listed.

In this assay the test system is L1210 leukemia ip in BDF1 mice, survival T/C. Briefly: NCI In Vivo Anticancer Drug Screen. Data for tumor model L1210 Leukemia (intraperitoneal) in B6D2F1 (BDF1) mice. To be noted: endpoint: mean survival time, higher = longer survival. The gist of the method: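 In this screen, tumor-bearing mice given compound are compared to those given vehicle, and their survival values are reported as a treated-to-control quotient.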

Where [1] appears, read: dose: 50.0 mg/kg/injection, schedule: Q01DX009 (ip), vehicle: saline with Tween-80.
The mark [2] stands for this setting: dose: 100.0 mg/kg/injection, schedule: Q01DX009 (ip), vehicle: saline with Tween-80.
The mark [3] stands for this setting: dose: 200.0 mg/kg/injection, schedule: Q01DX009 (ip), vehicle: saline with Tween-80.
Setting [4] is: dose: 100.0 mg/kg/injection, schedule: Q04DX003 (ip), vehicle: saline with Tween-80.
Setting [5] is: dose: 200.0 mg/kg/injection, schedule: Q04DX003 (ip), vehicle: saline with Tween-80.
[6] abbreviates: dose: 400.0 mg/kg/injection, schedule: Q04DX003 (ip), vehicle: saline with Tween-80.
[7] abbreviates: dose: 100.0 mg/kg/injection, schedule: Q01DX001 (ip), vehicle: carboxymethylcellulose (CMC).
Setting [8] is: dose: 200.0 mg/kg/injection, schedule: Q01DX001 (ip), vehicle: carboxymethylcellulose (CMC).
Where [9] appears, read: dose: 400.0 mg/kg/injection, schedule: Q01DX001 (ip), vehicle: carboxymethylcellulose (CMC).
Where [10] appears, read: dose: 50.0 mg/kg/injection, schedule: Q01DX001 (ip), vehicle: carboxymethylcellulose (CMC).
Setting [11] is: dose: 100.0 mg/kg/injection, schedule: Q01DX001 (ip), vehicle: saline with Tween-80.
Where [12] appears, read: dose: 100.0 mg/kg/injection, schedule: Q04DX002 (ip), vehicle: saline with Tween-80.
Setting [13] is: dose: 200.0 mg/kg/injection, schedule: Q01DX001 (ip), vehicle: saline with Tween-80.
The mark [14] stands for this setting: dose: 200.0 mg/kg/injection, schedule: Q04DX002 (ip), vehicle: saline with Tween-80.
Where [15] appears, read: dose: 400.0 mg/kg/injection, schedule: Q01DX001 (ip), vehicle: saline with Tween-80.
[16] abbreviates: dose: 400.0 mg/kg/injection, schedule: Q04DX002 (ip), vehicle: saline with Tween-80.
Setting [17] is: dose: 100.0 mg/kg/injection, schedule: Q04DX003 (ip), vehicle: Klucel (hydroxypropylcellulose) (HPC).
The mark [18] stands for this setting: dose: 400.0 mg/kg/injection, schedule: Q04DX003 (ip), vehicle: Klucel (hydroxypropylcellulose) (HPC).
[19] abbreviates: dose: 100.0 mg/kg/injection, schedule: Q01DX001 (ip), vehicle: saline.
[20] abbreviates: dose: 200.0 mg/kg/injection, schedule: Q01DX001 (ip), vehicle: saline.
[21] abbreviates: dose: 400.0 mg/kg/injection, schedule: Q01DX001 (ip), vehicle: saline.
[22] abbreviates: dose: 100.0 mg/kg/injection, schedule: Q01DX009 (ip), vehicle: Klucel (hydroxypropylcellulose) (HPC).
[23] abbreviates: dose: 200.0 mg/kg/injection, schedule: Q01DX009 (ip), vehicle: Klucel (hydroxypropylcellulose) (HPC).
Setting [24] is: dose: 400.0 mg/kg/injection, schedule: Q01DX009 (ip), vehicle: Klucel (hydroxypropylcellulose) (HPC).

Consider `COC(=O)c1cc(OC)cc(OC)c1`, for which the T/C runs as follows: (dose: 100.0 mg/kg/injection, schedule: Q04DX003 (ip), vehicle: other) 88 % of control; (dose: 200.0 mg/kg/injection, schedule: Q04DX003 (ip), vehicle: other) 92 % of control; (dose: 400.0 mg/kg/injection, schedule: Q04DX003 (ip), vehicle: other) 97 % of control.
Regarding `CC1=C(c2ccccc2)C2(c3ccccc3)C3(C)C(=O)C(C)(C(c4ccccc4)C3c3ccccc3)C2(C)C1=O` (configuration not stated), the T/C was 97 % of control (dose: 100.0 mg/kg/injection, schedule: Q04DX002 (ip), vehicle: gum acacia); 91 % of control (dose: 200.0 mg/kg/injection, schedule: Q04DX002 (ip), vehicle: gum acacia); 94 % of control (dose: 400.0 mg/kg/injection, schedule: Q04DX002 (ip), vehicle: gum acacia).
On to `CNc1ccccc1C(=O)N/N=C/Cc1ccccc1`, for which the T/C reads like this: (dose: 100.0 mg/kg/injection, schedule: Q04DX002 (ip), vehicle: Klucel (hydroxypropylcellulose) (HPC)) 103 % of control; (dose: 200.0 mg/kg/injection, schedule: Q04DX002 (ip), vehicle: Klucel (hydroxypropylcellulose) (HPC)) 92 % of control; (dose: 400.0 mg/kg/injection, schedule: Q04DX002 (ip), vehicle: Klucel (hydroxypropylcellulose) (HPC)) 106 % of control.
`COC(=O)CC(=O)C(C)(C)C`: the T/C was 101 % of control under setting [1], 101 % of control under setting [2] and 101 % of control under setting [3].
Regarding `COc1ccc(C2(C(=O)O)CC2)cc1`, the T/C reads like this: under setting [4], 96 % of control; under setting [5], 97 % of control; under setting [6], 94 % of control.
In the same order, the values of `CC1C(=O)C(=O)C(CCc2ccccc2)C1=O` (configuration not stated) are 97 % of control, 97 % of control and 97 % of control.
Turning to `CNC(=O)Oc1cccc(C(F)(F)F)c1`, the T/C was 90 % of control under setting [7], 98 % of control under setting [8] and 92 % of control under setting [9].
For the compound `NCCCn1cnc2c(N)ncnc21`, the T/C (dose: 100.0 mg/kg/injection, schedule: Q01DX009 (ip), vehicle: saline) was 94 % of control; the T/C (dose: 100.0 mg/kg/injection, schedule: Q04DX003 (ip), vehicle: saline) is 91 % of control; the T/C (dose: 200.0 mg/kg/injection, schedule: Q04DX003 (ip), vehicle: saline) is 98 % of control.
For `COc1cc(C2c3c(cc(OC)c(O)c3OC)C=C(C(=O)O)C2CO)cc(OC)c1O` (configuration not stated), the T/C runs as follows: under setting [10], 94 % of control; under setting [7], 102 % of control; under setting [8], 96 % of control; under setting [9], 91 % of control.
As to `CC(C)/C=N/NC(=O)CCCCCCCCC(=O)N/N=C/C(C)C`, the T/C is, setting by setting: under setting [11], 97 % of control; under setting [2], 105 % of control and 106 % of control; under setting [12], 97 % of control; under setting [4], 111 % of control; under setting [13], 92 % of control; under setting [3], 100 % of control and 108 % of control. The T/C runs as follows: under setting [14], 97 % of control; under setting [5], 110 % of control; under setting [15], 97 % of control; (dose: 400.0 mg/kg/injection, schedule: Q01DX009 (ip), vehicle: saline with Tween-80) 93 % of control and 108 % of control; under setting [16], 94 % of control and 95 % of control; under setting [6], 101 % of control.
As to `CC(=O)Nn1cnc2c(=S)nc[nH]c21`, the T/C by setting is: (dose: 20.0 mg/kg/injection, schedule: Q01DX009 (ip), vehicle: saline with Tween-80) 108 % of control; under setting [11], 101 % of control; (dose: 177.0 mg/kg/injection, schedule: Q01DX001 (ip), vehicle: saline with Tween-80) 106 % of control; under setting [13], 110 % of control; under setting [3], 93 % of control; (dose: 266.0 mg/kg/injection, schedule: Q01DX001 (ip), vehicle: saline with Tween-80) 154 % of control. Besides, the T/C under setting [15] was 118 % of control.
Turning to `C=C(Br)CSC#N`, the T/C reads like this: (dose: 12.5 mg/kg/injection, schedule: Q01DX009 (ip), vehicle: saline with Tween-80) 93 % of control; (dose: 25.0 mg/kg/injection, schedule: Q01DX009 (ip), vehicle: saline with Tween-80) 102 % of control; under setting [1], 89 % of control.
As for `Clc1ccc(Sc2ccc(Br)cc2)cc1`, the T/C was 103 % of control under setting [10], 101 % of control under setting [7], 103 % of control under setting [8] and 101 % of control under setting [9].
On to `COc1ccc(OC)c(NC(=O)N(CCO)C2CCCCC2)c1`, for which the T/C is, setting by setting: under setting [17], 90 % of control; under setting [18], 97 % of control.
As for `CCCCC[CH2][Sn]([CH2]CCCCC)([CH2]CCCCC)[NH]S(=O)(=O)c1ccc(C)cc1`, the T/C under setting [12] was 87 % of control, the T/C under setting [14] was 105 % of control and the T/C under setting [16] is 94 % of control.
With `CCCc1nnnn1C12CC3CC(CC(C3)C1)C2`, the T/C runs as follows: under setting [19], 102 % of control; under setting [20], 100 % of control; under setting [21], 93 % of control.
Turning to `O=C(Nc1ccccc1Cl)Nc1cc(Cl)ccc1Cl`, the T/C runs as follows: (dose: 100.0 mg/kg/injection, schedule: Q04DX002 (ip), vehicle: saline + alcohol) 100 % of control; (dose: 200.0 mg/kg/injection, schedule: Q04DX002 (ip), vehicle: saline + alcohol) 100 % of control; (dose: 400.0 mg/kg/injection, schedule: Q04DX002 (ip), vehicle: saline + alcohol) 92 % of control.
For `Oc1cc2ccccc2c2c1ccc1ccccc12`, the T/C is, setting by setting: under setting [19], 102 % of control; under setting [20], 111 % of control; under setting [21], 102 % of control.
For the compound `CSc1ccccc1N=NN(C)C`, the T/C by setting is: under setting [22], 101 % of control; under setting [23], 97 % of control and 105 % of control; under setting [24], 95 % of control and 100 % of control; (dose: 800.0 mg/kg/injection, schedule: Q01DX009 (ip), vehicle: Klucel (hydroxypropylcellulose) (HPC)) 121 % of control.
Take `CN(CCCCN(C)P(=O)(N1CC1)N1CC1)P(=O)(N1CC1)N1CC1`: the T/C under setting [7] was 88 % of control.
Turning to `CCCCCCCCCCCn1cnc2c(N)ncnc21`, the T/C (dose: 12.5 mg/kg/injection, schedule: Q01DX005 (ip), vehicle: other) was 93 % of control; the T/C (dose: 25.0 mg/kg/injection, schedule: Q01DX005 (ip), vehicle: other) was 103 % of control; the T/C (dose: 50.0 mg/kg/injection, schedule: Q01DX005 (ip), vehicle: other) is 92 % of control; the T/C (dose: 100.0 mg/kg/injection, schedule: Q01DX005 (ip), vehicle: other) was 103 % of control; the T/C (dose: 200.0 mg/kg/injection, schedule: Q01DX005 (ip), vehicle: other) was 104 % of control.
Take `Clc1cccc(/C=C2\c3cc(Cl)ccc3-c3c(Cl)cc(Cl)cc32)c1`: the T/C is, setting by setting: (dose: 100.0 mg/kg/injection, schedule: Q01DX001 (ip), vehicle: Klucel (hydroxypropylcellulose) (HPC)) 96 % of control; under setting [22], 106 % of control; under setting [17], 97 % of control; (dose: 200.0 mg/kg/injection, schedule: Q01DX001 (ip), vehicle: Klucel (hydroxypropylcellulose) (HPC)) 93 % of control; under setting [23], 98 % of control; (dose: 200.0 mg/kg/injection, schedule: Q04DX003 (ip), vehicle: Klucel (hydroxypropylcellulose) (HPC)) 101 % of control. Further, the T/C runs as follows: (dose: 400.0 mg/kg/injection, schedule: Q01DX001 (ip), vehicle: Klucel (hydroxypropylcellulose) (HPC)) 93 % of control; under setting [24], 98 % of control; under setting [18], 101 % of control.
